Measured values from patent publication US20260250290A1 (BRISTOL-MYERS SQUIBB COMPANY, priority 2023, published 2026).

Molecular target: T1, full length SGK1 (Homo sapiens, UniProt O00141)
T1 construct: 125 μM full length SGK1 (Life Technologies Part #PR7358A); purchased Life Technologies PR7358A
T1 sequence (O00141 1-431): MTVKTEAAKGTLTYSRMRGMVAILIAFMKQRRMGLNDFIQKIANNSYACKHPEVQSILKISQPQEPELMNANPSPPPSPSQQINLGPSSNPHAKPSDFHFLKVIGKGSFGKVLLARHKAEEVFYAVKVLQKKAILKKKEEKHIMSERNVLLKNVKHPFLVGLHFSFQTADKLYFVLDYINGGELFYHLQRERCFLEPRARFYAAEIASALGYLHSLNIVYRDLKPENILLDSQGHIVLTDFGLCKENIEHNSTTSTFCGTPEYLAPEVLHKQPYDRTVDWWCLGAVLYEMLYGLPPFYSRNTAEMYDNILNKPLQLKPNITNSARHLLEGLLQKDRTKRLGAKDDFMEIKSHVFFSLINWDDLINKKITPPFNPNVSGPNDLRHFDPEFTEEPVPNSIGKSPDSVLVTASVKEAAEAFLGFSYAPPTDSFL
Assay: SGK1 inhibition Assay A (Caliper LabChip electrophoretic separation of fluorescent peptide substrate and phosphorylated product)
Format: biochemical
Details: Assay A; 20 μM ATP, 40 min incubation; read-out: SGK1 IC50

Row | IC50 [nM] | Compound
1 | 450 | Cc1nc(C)c(C(=O)N[C@@H]2CCCN(c3cc(-c4cncnc4)n4ncnc(N)c34)C2)s1 [Example 511, (R)-N-(1-(4-amino-7-(pyrimidin-5-yl)pyrrolo[2,1-f][1,2,4]triazin-5-yl)piperidin-3-yl)-2,4-dimethylthiazole-5-carboxamide]
2 | 66 | Cc1nc(C)c(C(=O)N[C@@H]2CCCN(c3cc(-c4ccc(C#N)nc4)n4ncnc(N)c34)C2)s1 [Example 512, (R)-N-(1-(4-amino-7-(6-cyanopyridin-3-yl)pyrrolo[2,1-f][1,2,4]triazin-5-yl)piperidin-3-yl)-2.4-dimethylthiazole-5-carboxamide]
3 | 32 | Cc1nc(C)c(C(=O)N[C@@H]2CCCN(c3cc(-c4ccnc(C#N)c4)n4ncnc(N)c34)C2)s1 [Example 513, (R)-N-(1-(4-amino-7-(2-cyanopyridin-4-yl)pyrrolo[2,1-f][1,2,4]triazin-5-yl)piperidin-3-yl)-2.4-dimethylthiazole-5-carboxamide]
4 | 131 | Cc1nc(C)c(C(=O)N[C@@H]2CCCN(c3cc(-c4ccc(=O)n(CC(C)C)c4)n4ncnc(N)c34)C2)s1 [Example 514, (R)-N-(1-(4-amino-7-(1-isobutyl-6-oxo-1,6-dihydropyridin-3-yl)pyrrolo[2,1-f][1,2,4]triazin-5-yl)piperidin-3-yl)-2,4-dimethylthiazole-5-carboxamide]
5 | 130 | N#Cc1ccc(-c2cc(N3CCC[C@@H](NC(=O)c4cc5cc(F)ccc5[nH]4)C3)c3c(N)ncnn23)cn1 [Example 515, (R)-N-(1-(4-amino-7-(6-cyanopyridin-3-yl)pyrrolo[2,1-f][1,2,4]triazin-5-yl)piperidin-3-yl)-5-fluoro-1H-indole-2-carboxamide]
6 | 164 | Nc1ncnn2c(-c3cncnc3)cc(N3CCC[C@@H](NC(=O)c4cc5cc(F)ccc5[nH]4)C3)c12 [Example 516, (R)-N-(1-(4-amino-7-(pyrimidin-5-yl)pyrrolo[2,1-f][1,2,4]triazin-5-yl)piperidin-3-yl)-5-fluoro-1H-indole-2-carboxamide]
7 | 28 | CC(=O)N1CC=C(c2cc(N3CCC[C@@H](NC(=O)c4cc5cc(F)ccc5[nH]4)C3)c3c(N)ncnn23)C1 [Example 517, (R)-N-(1-(7-(1-acetyl-2,5-dihydro-1H-pyrrol-3-yl)-4-aminopyrrolo[2,1-f][1,2,4]triazin-5-yl)piperidin-3-yl)-5-fluoro-1H-indole-2-carboxamide]
8 | 138 | COC(=O)N1CC=C(c2cc(N3CCC[C@@H](NC(=O)c4cc5cc(F)ccc5[nH]4)C3)c3c(N)ncnn23)C1 [Example 518, Methyl (R)-3-(4-amino-5-(3-(5-fluoro-1H-indole-2-carboxamido)piperidin-1-yl)pyrrolo[2,1-f][1,2,4]triazin-7-yl)-2,5-dihydro-1H-pyrrole-1-carboxylate]
9 | 17 | Cc1cc(-c2cc(N3CCC[C@@H](NC(=O)c4ccc(C(F)F)s4)C3)c3c(N)ncnn23)cnc1C#N [Example 522]
10 | 118 | N#Cc1ncc(-c2cc(N3CCC[C@@H](NC(=O)c4ccc(C(F)F)s4)C3)c3c(N)ncnn23)cc1F [Example 523, (R)-N-(1-(4-amino-7-(6-cyano-5-fluoropyridin-3-yl)pyrrolo[2,1-f][1,2,4]triazin-5-yl)piperidin-3-yl)-5-(difluoromethyl)thiophene-2-carboxamide]
11 | 362 | N#Cc1ncc(-c2cc(N3CCC[C@@H](NC(=O)c4ccc(C(F)F)s4)C3)c3c(N)ncnn23)cc1C(F)(F)F [Example 524, (R)-N-(1-(4-amino-7-(6-cyano-5-(trifluoromethyl)pyridin-3-yl)pyrrolo[2,1-f][1,2,4]triazin-5-yl)piperidin-3-yl)-5-(difluoromethyl)thiophene-2-carboxamide]
12 | 26 | NC(=O)c1ncc(-c2cc(N3CCC[C@@H](NC(=O)c4ccc(C(F)F)s4)C3)c3c(N)ncnn23)cc1C(F)(F)F [Example 525]
13 | 190 | Nc1ncnn2c(-c3ccc(=O)[nH]c3)cc(N3CCC[C@@H](NC(=O)c4ccc(C(F)F)s4)C3)c12 [Example 526, (R)-N-(1-(4-amino-7-(6-oxo-1,6-dihydropyridin-3-yl)pyrrolo[2,1-f][1,2,4]triazin-5-yl)piperidin-3-yl)-5-(difluoromethyl)thiophene-2-carboxamide]
14 | 148 | Nc1ncnn2c(-c3ccc(=O)n(C(F)F)c3)cc(N3CCC[C@@H](NC(=O)c4ccc(C(F)F)s4)C3)c12 [Example 527, (R)-N-(1-(4-amino-7-(1-(difluoromethyl)-6-oxo-1,6-dihydropyridin-3-yl)pyrrolo[2,1-f][1,2,4]triazin-5-yl)piperidin-3-yl)-5-(difluoromethyl)thiophene-2-carboxamide]
15 | 139 | Nc1ncnn2c(-c3ccc(OC(F)F)nc3)cc(N3CCC[C@@H](NC(=O)c4ccc(C(F)F)s4)C3)c12 [Example 528, (R)-N-(1-(4-amino-7-(6-(difluoromethoxy)pyridin-3-yl)pyrrolo[2,1-f][1,2,4]triazin-5-yl)piperidin-3-yl)-5-(difluoromethyl)thiophene-2-carboxamide]
16 | 11 | N#Cc1ncc(-c2cc(N3CCC[C@@H](NC(=O)c4ccc(Cl)s4)C3)c3c(N)ncnn23)cc1F [Example 530, (R)-N-(1-(4-amino-7-(6-cyano-5-fluoropyridin-3-yl)pyrrolo[2,1-f][1,2,4]triazin-5-yl)piperidin-3-yl)-5-chlorothiophene-2-carboxamide]
17 | 18 | N#Cc1ncc(-c2cc(N3CCC[C@@H](NC(=O)c4ccc(Cl)s4)C3)c3c(N)ncnn23)cc1C(F)(F)F [Example 531, (R)-N-(1-(4-amino-7-(6-cyano-5-(trifluoromethyl)pyridin-3-yl)pyrrolo[2,1-f][1,2,4]triazin-5-yl)piperidin-3-yl)-5-chlorothiophene-2-carboxamide]
18 | 6 | CCn1cc(-c2cc(N3CCC[C@@H](NC(=O)c4ccc(Cl)s4)C3)c3c(N)ncnn23)ccc1=O [Example 532, (R)-N-(1-(4-amino-7-(1-ethyl-6-oxo-1,6-dihydropyridin-3-yl)pyrrolo[2,1-f][1,2,4]triazin-5-yl)piperidin-3-yl)-5-chlorothiophene-2-carboxamide]
19 | 728 | CC(C)(O)c1ncc(-c2cc(N3CCC[C@@H](NC(=O)c4ccc(Cl)s4)C3)c3c(N)ncnn23)cn1 [Example 533, (R)-N-(1-(4-amino-7-(2-(2-hydroxypropan-2-yl)pyrimidin-5-yl)pyrrolo[2,1-f][1,2,4]triazin-5-yl)piperidin-3-yl)-5-chlorothiophene-2-carboxamide]
20 | 8 | Nc1ncnn2c(-c3ccc(OCC(F)F)nc3)cc(N3CCC[C@@H](NC(=O)c4ccc(Cl)s4)C3)c12 [Example 534, (R)-N-(1-(4-amino-7-(6-(2,2-difluoroethoxy)pyridin-3-yl)pyrrolo[2,1-f][1,2,4]triazin-5-yl)piperidin-3-yl)-5-chlorothiophene-2-carboxamide]
21 | 58 | Nc1ncnn2c(-c3cnccn3)cc(N3CCC[C@@H](NC(=O)c4ccc(Cl)s4)C3)c12 [Example 535, (R)-N-(1-(4-amino-7-(pyrazin-2-yl)pyrrolo[2,1-f][1,2,4]triazin-5-yl)piperidin-3-yl)-5-chlorothiophene-2-carboxamide]
22 | 7 | Nc1ncnn2c(-c3ccc(=O)[nH]c3)cc(N3CCC[C@@H](NC(=O)c4ccc(Cl)s4)C3)c12 [Example 536, (R)-N-(1-(4-amino-7-(6-oxo-1,6-dihydropyridin-3-yl)pyrrolo[2,1-f][1,2,4]triazin-5-yl)piperidin-3-yl)-5-chlorothiophene-2-carboxamide]
23 | 2 | Nc1ncnn2c(-c3ccc(=O)n(C(F)F)c3)cc(N3CCC[C@@H](NC(=O)c4ccc(Cl)s4)C3)c12 [Example 537, (R)-N-(1-(4-amino-7-(1-(difluoromethyl)-6-oxo-1,6-dihydropyridin-3-yl)pyrrolo[2,1-f][1,2,4]triazin-5-yl)piperidin-3-yl)-5-chlorothiophene-2-carboxamide]
24 | 20 | Nc1ncnn2c(-c3ccc(OC(F)F)nc3)cc(N3CCC[C@@H](NC(=O)c4ccc(Cl)s4)C3)c12 [Example 538, (R)-N-(1-(4-amino-7-(6-(difluoromethoxy)pyridin-3-yl)pyrrolo[2,1-f][1,2,4]triazin-5-yl)piperidin-3-yl)-5-chlorothiophene-2-carboxamide]
25 | 0.4 | Nc1ncnn2c(-c3ccc(C=O)cc3)cc(N3CCC[C@@H](NC(=O)c4ccc(Cl)s4)C3)c12 [Example 539]
26 | 5 | CC(=O)N1CC=C(c2cc(N3CCC[C@@H](NC(=O)c4ccc(-c5ccnc(C(F)F)c5)s4)C3)c3c(N)ncnn23)C1 [Example 541, (R)—N-(1-(7-(1-acetyl-2,5-dihydro-1H-pyrrol-3-yl)-4-aminopyrrolo[2,1-f][1,2,4]triazin-5-yl)piperidin-3-yl)-5-(2-(difluoromethyl)pyridin-4-yl)thiophene-2-carboxamide]
27 | 4 | Nc1ncnn2c(-c3ccnc(C(F)F)c3)cc(N3CCC[C@@H](NC(=O)c4ccc(-c5ccnc(C(F)F)c5)s4)C3)c12 [Example 542, (R)-N-(1-(4-amino-7-(2-(difluoromethyl)pyridin-4-yl)pyrrolo[2,1-f][1,2,4]triazin-5-yl)piperidin-3-yl)-5-(2-(difluoromethyl)pyridin-4-yl)thiophene-2-carboxamide]
28 | 7 | N#Cc1ccc(-c2ccc(C(=O)N[C@@H]3CCCN(c4cc(-c5ccnc(C(F)F)c5)n5ncnc(N)c45)C3)s2)cc1 [Example 543, (R)-N-(1-(4-amino-7-(2-(difluoromethyl)pyridin-4-yl)pyrrolo[2,1-f][1,2,4]triazin-5-yl)piperidin-3-yl)-5-(4-cyanophenyl)thiophene-2-carboxamide]
